The target of the experiment is human recombinant PARG (Homo sapiens (Human), UniProt Q86W56). In words: PARG Activity Assay. Format: biochemical. As to conditions: recombinant human PARG 0.0185 nM, 1 hour pre-incubation, poly (ADP-ribose) substrate-coated plate, Abs 450. The method, then:
In order to evaluate the PARG inhibitory activity of the present compound, the inhibitory activity of each test compound against human recombinant PARG was measured. The specific procedure is described below.
Test compound was dissolved in dimethyl sulfoxide and prepared a 10 mM stock solution.
PARG Activity Assay was performed in Streptavidin-coated 96-well plates. […] The substrate solution was added to the 96-well plate at the volume of 200 micro liter per well and incubated for 3 hours at room temperature. After the incubation, the substrate solution was discarded and assay plate was washed 4 times with 220 micro liter of PBS containing 0.1% Tween20 (PBST). […] The diluted enzyme solution was pre-incubated with compounds for 1 hour at room temperature in a 96-well plate and transferred 100 micro liter per well to the poly (ADP-ribose) substrate-coated assay plate. The plate was incubated for 1 hour at 25° C. and then washed 4 times with 220 micro liters of PBST. For the detection of non-digested poly (ADP-ribose) polymer on the plate, mouse anti-poly (ADP-ribose) antibody diluted with 0.2% BSA containing PBS was added 100 micro liters per well and incubated 1 hour at room temperature. Plate was washed 4 times with TBST and 100 micro liter of HRP-labeled anti-mouse Ig antibody was added to the wells. Plate was incubated for 30 minutes at room temperature and then washed 4 times with PBST. For the detection 100 micro liters of TMB substrate solution was added to the wells. After sufficient color development, reaction was stopped by addition of 50 micro liter of 0.2 M […]. The 450 nm absorbance (Abs 450) of each well was read with a micro plate reader. The assay was performed by duplicated and average of 2 independent assays were used for the determination of PARG inhibitor y activity.
Wells treated with dimethyl sulfoxide instead of test compound solution were designated as a Negative Control of assay
Wells treated with 0.2% BSA containing PBS instead of recombinant human PARG protein and with dimethyl sulfoxide instead of test compound solution were designated as a Positive Control of assay.
The PARG Inhibitory Activity (%) was determined by the following formulation.
PARG Inhibitory Activity (%)=[(AbsX−AbsA)/(AbsB−AbsA)]×100
(wherein, • AbsA is absorbance (Abs 450) of Negative Control wells • AbsB is absorbance (Abs 450) of Positive Control wells • AbsX is absorbance (Abs 450) of wells treated with test compound.)
In Table, Ex indicates an Example number shown below.

Broadly, the pIC50 is the negative decadic logarithm of the IC50, by convention in mol/L.

pIC50: −log10 of the molar value.

Chain of human recombinant PARG (Q86W56 whole entry): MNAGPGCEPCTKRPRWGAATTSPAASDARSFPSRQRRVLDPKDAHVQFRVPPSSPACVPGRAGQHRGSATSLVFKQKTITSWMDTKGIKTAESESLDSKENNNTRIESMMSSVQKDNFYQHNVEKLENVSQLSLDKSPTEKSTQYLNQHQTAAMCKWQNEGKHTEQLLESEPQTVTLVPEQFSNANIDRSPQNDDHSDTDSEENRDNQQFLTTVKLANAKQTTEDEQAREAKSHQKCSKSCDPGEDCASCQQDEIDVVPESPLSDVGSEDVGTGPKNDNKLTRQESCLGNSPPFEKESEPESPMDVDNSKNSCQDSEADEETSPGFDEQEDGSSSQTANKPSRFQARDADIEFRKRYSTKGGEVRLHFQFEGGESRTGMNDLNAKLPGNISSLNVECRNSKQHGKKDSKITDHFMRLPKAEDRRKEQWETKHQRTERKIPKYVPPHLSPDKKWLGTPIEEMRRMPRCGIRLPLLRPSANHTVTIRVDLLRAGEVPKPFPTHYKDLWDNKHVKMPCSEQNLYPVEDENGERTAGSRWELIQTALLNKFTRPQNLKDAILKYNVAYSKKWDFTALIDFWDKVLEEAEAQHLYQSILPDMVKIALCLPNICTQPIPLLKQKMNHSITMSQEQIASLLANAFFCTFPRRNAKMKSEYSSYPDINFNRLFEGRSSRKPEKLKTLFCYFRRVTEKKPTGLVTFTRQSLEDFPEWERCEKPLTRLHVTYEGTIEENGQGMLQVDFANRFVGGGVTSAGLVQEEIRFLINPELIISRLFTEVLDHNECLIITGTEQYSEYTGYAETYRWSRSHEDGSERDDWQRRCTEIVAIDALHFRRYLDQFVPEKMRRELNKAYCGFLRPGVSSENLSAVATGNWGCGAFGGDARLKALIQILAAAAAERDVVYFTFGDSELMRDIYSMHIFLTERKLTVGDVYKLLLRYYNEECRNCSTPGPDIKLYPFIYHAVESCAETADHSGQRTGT

Turning to `Cc1cc(Cn2c(=O)n(Cc3cnc(C)s3)c(=O)c3cc(S(=O)(=O)NC4(C)CC4)sc32)n(C)n1` [Ex 3], the pIC50 was 7.54.

With `Cc1ncc(Cn2c(=O)c3cc(S(=O)(=O)NC4(C)CC4)sc3n(Cc3ccc4[nH]ncc4c3)c2=O)s1` [Ex 4], the pIC50 is 7.96. Next, `Cc1ncc(Cn2c(=O)c3cc(S(=O)(=O)NC4(C)CC4)sc3n(Cc3ccc4cn[nH]c4c3)c2=O)s1` [Ex 5]: 7.92; `Cc1ncc(Cn2c(=O)c3cc(S(=O)(=O)NC4(C)CC4)sc3n(CCOC3CNC3)c2=O)s1` [Ex 7]: 6.68. `Cc1ncc(Cn2c(=O)c3cc(S(=O)(=O)NC4(C)CC4)sc3n(CCCN)c2=O)s1` [Ex 9]: the pIC50 was 5.97.

For the molecule `Cc1ncc(Cn2c(=O)c3cc(S(=O)(=O)NC4(C)CC4)sc3n(Cc3cnc4[nH]ccc4c3)c2=O)s1` [Ex 10], the pIC50 was 7.80. With `Cc1ncc(Cn2c(=O)c3cc(S(=O)(=O)NC4(C)CC4)sc3n(Cc3ccc4cc[nH]c4c3)c2=O)s1` [Ex 11], the pIC50 is 6.80. Turning to `Cc1ncc(Cn2c(=O)c3cc(S(=O)(=O)NC4(C)CC4)sc3n(Cc3ccc4c(c3)OCC4)c2=O)s1` [Ex 13], the pIC50 is 7.39.

Take `Cc1ncc(Cn2c(=O)c3cc(S(=O)(=O)NC4(C)CC4)sc3n(CC3CCOCC3)c2=O)s1` [Ex 14]: the pIC50 is 6.49. With `Cc1ncc(Cn2c(=O)c3cc(S(=O)(=O)NC4(C)CC4)sc3n(CC3CCCO3)c2=O)s1` (stereo not drawn) [Ex 15], the pIC50 is 6.22. To `Cc1ncc(Cn2c(=O)c3cc(S(=O)(=O)NC4(C)CC4)sc3n(CC3CCOC3)c2=O)s1` (stereo not drawn) [Ex 16] belongs 6.01; to `Cc1ncc(Cn2c(=O)c3cc(S(=O)(=O)NC4(C)CC4)sc3n(CC3CCCOC3)c2=O)s1` (stereo not drawn) [Ex 17], 6.33. Turning to `Cc1ncc(Cn2c(=O)c3cc(S(=O)(=O)NC4(C)CC4)sc3n(Cc3nc4ccccc4[nH]3)c2=O)s1` [Ex 18], the pIC50 is 6.24. For `Cc1ncc(Cn2c(=O)c3cc(S(=O)(=O)NC4(C)CC4)sc3n(Cc3cc4n(n3)CCOC4)c2=O)s1` [Ex 19], the pIC50 was 6.89. As for `Cc1ncc(Cn2c(=O)c3cc(S(=O)(=O)NC4(C)CC4)sc3n(Cc3nc4c(o3)CCCC4)c2=O)s1` [Ex 20], the pIC50 was 6.96. Next, `CCNS(=O)(=O)c1cc2c(=O)n(Cc3cnc(C)s3)c(=O)n(CC3CC3)c2s1` [Ex 21]: 4.12.

In the case of `Cc1ncc(Cn2c(=O)c3cc(S(=O)(=O)NC(C)C)sc3n(CC3CC3)c2=O)s1` [Ex 22], the pIC50 was 4.03. Next, `CNS(=O)(=O)c1cc2c(=O)n(Cc3cnc(C)s3)c(=O)n(CC3CC3)c2s1` [Ex 23]: 4.01; `Cc1ncc(Cn2c(=O)c3cc(S(=O)(=O)NC4CC4)sc3n(CC3CC3)c2=O)s1` [Ex 24]: 5.65. `Cn1cc(Cn2c(=O)c3cc(S(=O)(=O)NC4(C)CC4)sc3n(CC3CC3)c2=O)cn1` [Ex 26]: the pIC50 is 6.43. On to `CC#CCn1c(=O)n(Cc2cnn(C)c2)c(=O)c2cc(S(=O)(=O)NC3(C)CC3)sc21` [Ex 27], for which the pIC50 was 6.60. For `Cc1cc(Cn2c(=O)n(Cc3cnn(C)c3)c(=O)c3cc(S(=O)(=O)NC4(C)CC4)sc32)n(C)n1` [Ex 30], the pIC50 was 7.43. As to `Cc1cc(Cn2c(=O)n(Cc3cnn(C)c3)c(=O)c3cc(S(=O)(=O)NC4(C)CC4)sc32)[nH]n1` [Ex 31], the pIC50 is 7.54. As to `Cc1nn(C)cc1Cn1c(=O)n(Cc2cnn(C)c2)c(=O)c2cc(S(=O)(=O)NC3(C)CC3)sc21` [Ex 32], the pIC50 was 5.16. As for `Cn1cc(Cn2c(=O)c3cc(S(=O)(=O)NC4(C)CC4)sc3n(Cc3cc4n(n3)CCOC4)c2=O)cn1` [Ex 33], the pIC50 was 7.46. Take `Cn1cc(Cn2c(=O)c3cc(S(=O)(=O)NC4(C)CC4)sc3n(Cc3cncnc3)c2=O)cn1` [Ex 34]: the negative logarithm of the IC50 (pIC50) was 6.52.

Take `Cn1cc(Cn2c(=O)c3cc(S(=O)(=O)NC4(C)CC4)sc3n(Cc3cnc(C#N)s3)c2=O)cn1` [Ex 35]: the pIC50 was 7.46. Consider `Cn1cc(Cn2c(=O)c3cc(S(=O)(=O)NC4(C)CC4)sc3n(Cc3cnc4[nH]ccc4c3)c2=O)cn1` [Ex 37], for which the pIC50 was 8.05. To `Cn1cc(Cn2c(=O)c3cc(S(=O)(=O)NC4(C)CC4)sc3n(Cc3ccc4[nH]ncc4c3)c2=O)cn1` [Ex 38] belongs 8.39.

`Cn1cc(Cn2c(=O)c3cc(S(=O)(=O)NC4(C)CC4)sc3n(Cc3ccc4[nH]c(=O)oc4c3)c2=O)cn1` [Ex 39]: the pIC50 was 7.68. Turning to `Cn1cc(Cn2c(=O)c3cc(S(=O)(=O)NC4(C)CC4)sc3n(Cc3cc4c(cn3)COC4)c2=O)cn1` [Ex 41], the pIC50 was 7.01. `COc1cncc(Cn2c(=O)n(Cc3cnn(C)c3)c(=O)c3cc(S(=O)(=O)NC4(C)CC4)sc32)c1` [Ex 42]: the pIC50 was 7.40. Next, `COc1cc(Cn2c(=O)n(Cc3cnn(C)c3)c(=O)c3cc(S(=O)(=O)NC4(C)CC4)sc32)ccn1` [Ex 43]: 7.54; `COc1ccc(Cn2c(=O)n(Cc3cnn(C)c3)c(=O)c3cc(S(=O)(=O)NC4(C)CC4)sc32)cn1` [Ex 44]: 7.32. Next, `CN1Cc2cc(Cn3c(=O)n(Cc4cnn(C)c4)c(=O)c4cc(S(=O)(=O)NC5(C)CC5)sc43)ccc2C1=O` [Ex 45]: 7.89. With `Cn1cc(Cn2c(=O)c3cc(S(=O)(=O)NC4(C)CC4)sc3n(Cc3ccc(F)cc3)c2=O)cn1` [Ex 46], the pIC50 was 8.04. Turning to `Cn1cc(Cn2c(=O)c3cc(S(=O)(=O)NC4(C)CC4)sc3n(Cc3ccc(Cl)c(F)c3)c2=O)cn1` [Ex 47], the pIC50 is 6.89. Next, `Cn1cc(Cn2c(=O)c3cc(S(=O)(=O)NC4(C)CC4)sc3n(Cc3ccc(F)c(Cl)c3)c2=O)cn1` [Ex 48]: 6.92. As to `Cn1cc(Cn2c(=O)c3cc(S(=O)(=O)NC4(C)CC4)sc3n(Cc3ccc(C4CC4)cc3)c2=O)cn1` [Ex 49], the pIC50 is 7.02.

In the case of `Cn1cc(Cn2c(=O)c3cc(S(=O)(=O)NC4(C)CC4)sc3n(Cc3ccc(OC(F)F)cc3)c2=O)cn1` [Ex 51], the pIC50 was 7.48. Turning to `Cn1cc(Cn2c(=O)c3cc(S(=O)(=O)NC4(C)CC4)sc3n(Cc3ccc(OC(F)(F)F)cc3)c2=O)cn1` [Ex 52], the negative logarithm of the IC50 (pIC50) was 7.00. Next, `Cn1cc(Cn2c(=O)c3cc(S(=O)(=O)NC4(C)CC4)sc3n(Cc3ccc(C#N)cc3)c2=O)cn1` [Ex 53]: 7.28; `CNc1ncc(Cn2c(=O)n(Cc3cnn(C)c3)c(=O)c3cc(S(=O)(=O)NC4(C)CC4)sc32)cn1` [Ex 54]: 7.31; `Cn1cc(Cn2c(=O)c3cc(S(=O)(=O)NC4(C)CC4)sc3n(Cc3cnn(CC(F)F)c3)c2=O)cn1` [Ex 56]: 7.44.

For `COCc1ncc(Cn2c(=O)n(Cc3cnn(C)c3)c(=O)c3cc(S(=O)(=O)NC4(C)CC4)sc32)s1` [Ex 58], the negative-log IC50 (pIC50) is 6.59. To `Cn1cc(Cn2c(=O)c3cc(S(=O)(=O)NC4(C)CC4)sc3n(Cc3ccc4c(c3)CCO4)c2=O)cn1` [Ex 59] belongs 7.66. To `Cn1cc(Cn2c(=O)c3cc(S(=O)(=O)NC4(C)CC4)sc3n(Cc3ccc4c(c3)CNC4=O)c2=O)cn1` [Ex 60] belongs 7.62. Turning to `Cn1cc(Cn2c(=O)c3cc(S(=O)(=O)NC4(C)CC4)sc3n(Cc3ccc4c(c3)C(=O)NC4)c2=O)cn1` [Ex 61], the negative logarithm of the IC50 (pIC50) is 7.96. `CN1Cc2ccc(Cn3c(=O)n(Cc4cnn(C)c4)c(=O)c4cc(S(=O)(=O)NC5(C)CC5)sc43)cc2C1=O` [Ex 62]: the pIC50 is 7.54. Consider `Cn1cc(Cn2c(=O)c3cc(S(=O)(=O)NC4(C)CC4)sc3n(Cc3cnc4c(c3)OCCO4)c2=O)cn1` [Ex 65], for which the pIC50 was 7.17. To `Cn1cc(Cn2c(=O)c3cc(S(=O)(=O)NC4(C)CC4)sc3n(Cc3ccc4c(c3)CNC4)c2=O)cn1` [Ex 66] belongs 7.34; to `CN1Cc2ccc(Cn3c(=O)n(Cc4cnn(C)c4)c(=O)c4cc(S(=O)(=O)NC5(C)CC5)sc43)cc2C1` [Ex 67], 7.00. To `Cn1cc(Cn2c(=O)c3cc(S(=O)(=O)NC4(C)CC4)sc3n(Cc3ccc(OC4CCC4)cc3)c2=O)cn1` [Ex 69] belongs 6.55. Turning to `Cn1cc(Cn2c(=O)c3cc(S(=O)(=O)NC4(C)CC4)sc3n(Cc3ccc(F)c(C#N)c3)c2=O)cn1` [Ex 70], the pIC50 was 7.22.

`CN(C)c1ccc(Cn2c(=O)n(Cc3cnn(C)c3)c(=O)c3cc(S(=O)(=O)NC4(C)CC4)sc32)cc1F` [Ex 71]: the pIC50 is 6.92. To `CCN(C)c1ccc(Cn2c(=O)n(Cc3cnn(C)c3)c(=O)c3cc(S(=O)(=O)NC4(C)CC4)sc32)cc1F` [Ex 72] belongs 6.72; to `CNc1ccc(Cn2c(=O)n(Cc3cnn(C)c3)c(=O)c3cc(S(=O)(=O)NC4(C)CC4)sc32)cc1F` [Ex 73], 7.77.

Source of the values: patent US20240083908A1, “TETRAHYDROTHIENOPYRIMIDINESULFONAMIDE COMPOUNDS” (priority 2020, published 2024).
